{"source": "patent US20040024068A1", "about": "“Antimicrobial compounds” (priority 1998, published 2004)", "key": {"[1]": {"system": "Mycobacterium smegmatis mc^2155 and InhA mutants", "assay": "MIC on agar plates by 2-fold serial dilutions, M. smegmatis strains", "assay_type": "cell-based", "conditions": "for MIC: Mycolicibacterium smegmatis"}, "[2]": {"system": "E. coli strain AGT11 versus isogenic parent AG100", "assay": "Isoniazid resistance of E. coli in the presence of 250 μM hydrogen peroxide", "assay_type": "cell-based, Escherichia coli", "conditions": "triclosan-resistant strain AGT11; 250 μM hydrogen peroxide present"}, "[3]": {"system": "E. coli strains AG100, AG100A, AGT11, AGT11K", "assay": "Inhibition of growth rate in broth (liquid) culture", "assay_type": "cell-based, Escherichia coli", "conditions": "for IC50: Escherichia coli, 1 h, 1 h after addition"}, "[4]": {"system": "clinical strains of E. coli", "assay": "Triclosan MIC of clinical strains from blood samples", "assay_type": "cell-based", "conditions": "Escherichia coli"}, "[5]": {"system": "M. smegmatis", "conditions": "cited from earlier work"}, "[6]": {"system": "hypersusceptible host strain AG100A bearing pBR322-derived plasmids", "assay": "Triclosan MIC encoded by plasmid clones in hypersusceptible host AG100A", "assay_type": "cell-based", "conditions": "Escherichia coli"}, "[7]": {"system": "E. coli strains AG100, AG100A, AGT11, AGT11K", "assay": "Cell lysis in broth (liquid) culture (loss of absorbance with loss of viable cfu)", "assay_type": "cell-based, Escherichia coli"}, "[8]": {"system": "E. coli K-12 derivatives", "assay": "microbe, parasite or virus in culture", "assay_type": "cell-based, Escherichia coli", "conditions": "for MIC: Escherichia coli"}, "[9]": {"system": "M. tuberculosis", "conditions": "cited from earlier work"}, "[10]": {"system": "E. coli K12 strain AG100 and triclosan resistant mutants", "assay": "Triclosan MIC by agar serial dilution plates (2.0 fold steps), AG100 and mutants selected on triclosan", "assay_type": "cell-based, Escherichia coli", "conditions": "for MIC: agar dilution plates"}}, "note": "Read-outs that look alike come from different tables or passages of the source.", "data": [{"smiles": "NNC(=O)c1ccncc1", "note": "[isoniazid]", "values": [{"measurement": "MIC", "setting": "[1]; MC^2155", "value": 7, "unit": "µg/mL"}, {"measurement": "relative MIC (S.D.) isoniazid (7H9)", "setting": "[1]; strain mc^2155/pMD31::inhA^+", "value": ">64"}, {"measurement": "relative MIC (S.D.) isoniazid (7H9)", "setting": "[1]; strain mc^2155 wild type", "value": 1.0}, {"measurement": "isoniazid resistance relative to isogenic parent AG100", "setting": "[2]", "value": "several times"}]}, {"smiles": "Oc1cc(Cl)ccc1Oc1ccc(Cl)cc1Cl", "note": "[triclosan, 2,4,4′-trichlor-2′-hydroxydiphenyl ether]", "values": [{"measurement": "MIC", "setting": "[1]; MC^2155, mc^2155, triclosan in 7H9", "value": 14, "unit": "µg/mL"}, {"measurement": "MIC", "setting": "[1]; MC^2155, mc^2155, triclosan in LB, mean (+/− S.D.) of 4-5 experiments", "value": 0.61, "unit": "µg/mL"}, {"measurement": "IC50", "setting": "[3]; read-out: Concentration of triclosan which inhibited growth rate 50%, strain AG100 (wild type), OD530", "value": "~0.15", "unit": "µg/mL"}, {"measurement": "IC50", "setting": "[3]; read-out: Concentration of triclosan which inhibited growth rate 50%, strain AG100A (ΔacrAB)", "value": "~0.02", "unit": "µg/mL"}, {"measurement": "Concentration of triclosan which inhibited growth rate 90%", "setting": "[3]; strain AG100 (wild type)", "value": 0.6, "unit": "µg/mL"}, {"measurement": "Concentration of triclosan which inhibited growth rate 90%", "setting": "[3]; strain AG100A (ΔacrAB)", "value": 0.05, "unit": "µg/mL"}, {"measurement": "MIC", "setting": "[4]; read-out: mean triclosan MIC, multiply resistant clinical strains E3, E19, HO99 overexpressing marA or soxS", "value": 0.33, "unit": "µg/mL"}, {"measurement": "MIC", "setting": "[4]; read-out: mean triclosan MIC, remaining 26 multiply resistant clinical strains overexpressing neither marA or soxS", "value": 0.13, "unit": "µg/mL"}, {"measurement": "MIC", "setting": "[4]; read-out: mean triclosan MIC, 14 of 15 antibiotic-susceptible clinical strains (Series S)", "value": 0.09, "unit": "µg/mL"}, {"measurement": "MIC", "setting": "[4]; read-out: triclosan MIC, multiply resistant clinical strain E10, overexpressing neither marA nor soxS", "value": 0.38, "unit": "µg/mL"}, {"measurement": "MIC", "setting": "[4]; read-out: triclosan MIC, multiply resistant clinical strain HO 17, overexpressing marA", "value": 0.15, "unit": "µg/mL"}, {"measurement": "MIC", "setting": "[4]; read-out: triclosan MIC, susceptible clinical strain S20, overexpressing marA", "value": 0.27, "unit": "µg/mL"}, {"measurement": "susceptibility to triclosan", "setting": "[5]", "value": "susceptible"}, {"measurement": "MIC", "setting": "[6]; clones pLYT1 through pLYT10 (AGT11 library) in hypersensitive strain AG100A", "value": "~4", "unit": "µg/mL"}, {"measurement": "MIC", "setting": "[6]; vector alone (pBR322) in AG100A", "value": "0.005 to 0.02", "unit": "µg/mL"}, {"measurement": "Concentration of triclosan which caused lysis", "setting": "[7]; strain AG100 (wild type), within 2 h", "value": 8, "unit": "µg/mL"}, {"measurement": "amount of triclosan required to give lysis", "setting": "[7]; strains AG100, AG100A and AGT11K together", "value": "2 to 8", "unit": "µg/mL"}, {"measurement": "MIC", "setting": "[8]; AG100, span of Tables 3-5, read-out: MIC (determined on agar)", "value": "0.17 to 0.28", "unit": "µg/mL"}, {"measurement": "MIC", "setting": "[8]; strain AG100, mean of two to five determinations, read-out: MIC", "value": 0.17, "unit": "µg/mL"}, {"measurement": "MIC", "setting": "[8]; strain GC4488, read-out: MIC", "value": 0.08, "unit": "µg/mL"}, {"measurement": "MIC", "setting": "[8]; strain HH180, read-out: MIC", "value": 0.07, "unit": "µg/mL"}, {"measurement": "change of triclosan MIC by overexpression of acrAB", "setting": "[8]; strain AG100B (mutation in acrR) vs AG100", "value": "doubled"}, {"measurement": "susceptibility to triclosan", "setting": "[9]", "value": "not sensitive"}, {"measurement": "MIC", "setting": "[10]; Escherichia coli, strain AG100 (wild-type)", "value": 0.28, "unit": "µg/mL"}, {"measurement": "MIC", "setting": "[10]; Escherichia coli, strain AG100A (AG100 ΔacrAB::kan)", "value": 0.018, "unit": "µg/mL"}, {"measurement": "MIC", "setting": "[10]; Escherichia coli, strain AGT11 (AG100 fabI G93V)", "value": 41, "unit": "µg/mL"}, {"measurement": "MIC", "setting": "[10]; Escherichia coli, strain AGT11K (AGT11 ΔacrAB::kan)", "value": "2 to 4", "unit": "µg/mL"}, {"measurement": "MIC of strain divided by MIC of AG1000", "setting": "[10]; strain AG100 (fabI none), inactivated locus acrAB", "value": 0.063}, {"measurement": "MIC of strain divided by MIC of AG1000", "setting": "[10]; strain AG100 (fabI none), inactivated locus mar", "value": 0.71}, {"measurement": "MIC of strain divided by MIC of AG1000", "setting": "[10]; strain AG100 (fabI none), inactivated locus none", "value": 1}, {"measurement": "MIC", "setting": "[10]; strain AG100 (wild-type)", "value": "0.28 ± 0.04", "unit": "µg/mL"}, {"measurement": "MIC of strain divided by MIC of AG1000", "setting": "[10]; strain AGT7 (fabI mutation NI), inactivated locus none", "value": 1.7}, {"measurement": "MIC of strain divided by MIC of AG1000", "setting": "[10]; strain AGT7, inactivated locus acrAB", "value": 0.071}, {"measurement": "MIC of strain divided by MIC of AG1000", "setting": "[10]; strain AGT7, inactivated locus mar", "value": 1.7}, {"measurement": "MIC of strain divided by MIC of AG1000", "setting": "[10]; strain AGT8 (fabI mutation NI), inactivated locus none", "value": 4}, {"measurement": "MIC of strain divided by MIC of AG1000", "setting": "[10]; strain AGT8, inactivated locus acrAB", "value": 0.25}, {"measurement": "MIC of strain divided by MIC of AG1000", "setting": "[10]; strain AGT8, inactivated locus mar", "value": 3.4}, {"measurement": "MIC of strain divided by MIC of AG1000", "setting": "[10]; strain AGT9 (fabI mutation NI), inactivated locus none", "value": 2.3}, {"measurement": "MIC of strain divided by MIC of AG1000", "setting": "[10]; strain AGT9, inactivated locus acrAB", "value": 0.32}, {"measurement": "MIC of strain divided by MIC of AG1000", "setting": "[10]; strain AGT9, inactivated locus mar", "value": 2.3}, {"measurement": "MIC", "setting": "[10]; strain AGT11K (AGT11 ΔacrAB::kan)", "value": 3.2, "unit": "µg/mL"}, {"measurement": "MIC of strain divided by MIC of AG1000", "setting": "[10]; strain AGT21 (fabI G93V), inactivated locus acrAB", "value": 11.4}, {"measurement": "MIC of strain divided by MIC of AG1000", "setting": "[10]; strain AGT21 (fabI G93V), inactivated locus mar", "value": 145}, {"measurement": "MIC of strain divided by MIC of AG1000", "setting": "[10]; strain AGT21 (fabI G93V), inactivated locus none", "value": 145}, {"measurement": "MIC of strain divided by MIC of AG1000", "setting": "[10]; strain AGT23 (fabI M159T), inactivated locus acrAB", "value": 1.7}, {"measurement": "MIC of strain divided by MIC of AG1000", "setting": "[10]; strain AGT23 (fabI M159T), inactivated locus none", "value": 11.4}, {"measurement": "MIC of strain divided by MIC of AG1000", "setting": "[10]; strain AGT25 (fabI F203L), inactivated locus acrAB", "value": 0.57}, {"measurement": "MIC of strain divided by MIC of AG1000", "setting": "[10]; strain AGT25 (fabI F203L), inactivated locus none", "value": 4.6}]}]}
